# In PMC8329121 (Journal of Neuroimmune Pharmacology, 2021):
# Numbering of substitutions follows the chain as printed.
# Columns and labels:
# [1] = target: T1, E2C-I159C hDAT (C90A/C306A/I159C) (Homo sapiens, UniProt Q01959, C306A/C90A/I159C); parameters: method as in Loland et al. [2004], [2008]; conditions: 0.5 mM MTSET for 10 min; ref Loland et al. [2004], [2008]; cited from earlier work
# T1 construct: expressed in transfected cells; host or cells: HEK293 cells, transient, pcDNA3.1+
# T1 sequence (Q01959 1-620 C90A/I159C/C306A): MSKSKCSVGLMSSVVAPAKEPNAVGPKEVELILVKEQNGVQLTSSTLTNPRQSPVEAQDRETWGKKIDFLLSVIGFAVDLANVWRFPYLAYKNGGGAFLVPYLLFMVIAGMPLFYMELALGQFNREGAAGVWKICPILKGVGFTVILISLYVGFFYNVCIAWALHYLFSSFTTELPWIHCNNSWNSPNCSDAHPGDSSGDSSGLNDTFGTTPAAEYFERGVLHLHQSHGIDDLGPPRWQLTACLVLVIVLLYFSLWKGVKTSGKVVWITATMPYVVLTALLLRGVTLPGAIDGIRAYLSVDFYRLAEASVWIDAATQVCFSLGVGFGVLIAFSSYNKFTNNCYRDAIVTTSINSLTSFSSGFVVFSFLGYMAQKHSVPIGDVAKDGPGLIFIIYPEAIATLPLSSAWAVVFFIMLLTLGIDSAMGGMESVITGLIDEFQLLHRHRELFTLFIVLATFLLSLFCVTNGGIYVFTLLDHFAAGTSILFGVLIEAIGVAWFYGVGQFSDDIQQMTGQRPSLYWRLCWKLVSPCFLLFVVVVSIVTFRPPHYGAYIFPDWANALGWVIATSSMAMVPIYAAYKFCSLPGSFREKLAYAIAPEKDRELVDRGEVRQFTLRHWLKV
# [2] = target: T2, E2C hDAT (C90A/C306A hDAT) (Homo sapiens, UniProt Q01959, C306A/C90A); assay: MTSET assay, [3H]DA uptake in HEK293 cells; format: cell-based
# T2 construct: expressed in transfected cells; host or cells: HEK293 cells, transient, pcDNA3.1+
# T2 sequence (Q01959 1-620 C90A/C306A): T1 sequence (Q01959 1-620 C90A/I159C/C306A) with C159I
# Excerpt: All mutants on hDAT were generated based on the predictions made using our computational model, as described previously using site-directed mutagenesis based on the wild-type hDAT (WT hDAT) sequence (NCBI, cDNA clone MGC: 164,608 IMAGE: 40,146,999) (Quizon et al. [2016]). The combination of hDAT mutations on Asp206 and His547 (Aspartic acid 206 to leucine and histidine 547 to alanine, D206L/H547A) were predicted to eliminate two hydrogen bonds between Tat and hDAT. In addition, the combination of mutations on Tyr88, Asp206, and His547 (tyrosine88 to phenylalanine and aspartic acid 206 to leucine and histidine 547 to alanine, Y88F/D206L/H547A) were predicted to eliminate three hydrogen bonds from the Tat-hDAT complex. Two extracellular cysteine90 and cysteine306 residues on WT hDAT were mutated to alanine as E2C hDAT (C90A/C306A hDAT), rendering the E2C hDAT MTSET-insensitive background (Pedersen et al. [2014]). A triple mutation of the two cysteine90 and 306 residues to alanine and […] to cysteine on WT hDAT was generated as E2C-I159C hDAT (C90A/C306A/I159C) for MTSET-sensitive construct. A combination of C90A/C306A/H547A was generated as E2C/H547A hDAT for MTSET-insensitive control for H547A. To determine whether H547A-enhanced DA transport is mediated by changing transporter conformation, two combinations of C90A/C306A/I159C/H547A and C90A/C306A/I159A/H547A were generated as E2C-I159C/H547A and E2C-I159A/H547A for positive and negative controls for MTSET sensitive background, respectively. Synthetic cDNA encoding hDAT subcloned into pcDNA3.1+ (provided by Dr. Haley E Melikian, University of Massachusetts) was used as a template to generate mutants using site-directed mutagenesis performed by GENEWIZ (South Plainfield, NJ). DNA sequencing was also performed by GENEWIZ to confirm the sequences of the mutant constructs. Plasmid DNA were propagated and purified using the Qiagen Hi-speed maxi prep plasmid DNA isolation kit (Qiagen, Valencia, CA, USA).
# This assay was performed based on the previous report with minor modifications (Loland et al. [2004], [2008]). First, we generated five WT hDAT based plasmid construct for MTSET-insensitive or sensitive background as we described above. HEK293 cells were grown in poly-d-lysine coated plates at a density of 1 × 10^5 cells/cm^2 were transfected with different E2C- associated hDAT background constructs: E2C hDAT, E2C-I159C hDAT, E2C/H547A hDAT, E2C-I159C/H547A or E2C-I159A/H547A. Twenty-four hours after the transfection, cells were washed twice with 1× KRH buffer, and preincubated with or without the presence of 10 µM nomifensine (for non-specific uptake) and MTSET for 10 min at room temperature. MTSET at 1 mM final concentration was chosen based on a pilot study on optimizing MTSET concentrations (0.1, 0.5 or 1.0 mM). […] Because MTSET is easily hydrolyzed in solution, the amount needed for a 10 × stock was weighed out and dissolved in 1 × KRH buffer just right before adding to the assigned wells, for a 10-fold dilution (final concentration of 1 mM in final volume of 250 µl). […] Cells were immediately washed twice with ice-cold 1 × KRH buffer to terminate the reaction and were lysed rapidly with the addition of 1 % SDS. Cell lysates were collected after incubation for 1 h at room temperature and radioactivity was determined the next day.
# [3] = E2C, 1 mM MTSET, HEK293, Fig. 8b
compound,measurement,setting,value
"C[N+](C)(C)CCSS(C)(=O)=O [MTSET, [2-(trimethylammonium)ethyl]-methanethiosulfonate]",inhibition on E2C-I159C,[1],40%
same,[3H]DA uptake in the presence of MTSET,[2]; [3],86.5 ± 6.0
same,effect of MTSET on DA uptake,[2]; [3],no effect
same,effect on [3H]DA uptake,"[2]; E2C-hDAT, MTSET 0.1, 0.5, 1.0 mM, pilot study Fig. 8a",no effect
